These results are taken from US20250346579A1, “PYRIDAZINONE COMPOUND AND PREPARATION METHOD THEREFOR, PHARMACEUTICAL COMPOSITION THEREOF, AND APPLICATION THEREOF” (CHINA PHARMACEUTICAL UNIVERSITY, priority 2021, published 2025).

This assay concerns the target T1, PARP7 (Homo sapiens, UniProt Q7Z3E1).
T1 construct: purchased BPS Bioscience
T1 sequence (Q7Z3E1 1-657): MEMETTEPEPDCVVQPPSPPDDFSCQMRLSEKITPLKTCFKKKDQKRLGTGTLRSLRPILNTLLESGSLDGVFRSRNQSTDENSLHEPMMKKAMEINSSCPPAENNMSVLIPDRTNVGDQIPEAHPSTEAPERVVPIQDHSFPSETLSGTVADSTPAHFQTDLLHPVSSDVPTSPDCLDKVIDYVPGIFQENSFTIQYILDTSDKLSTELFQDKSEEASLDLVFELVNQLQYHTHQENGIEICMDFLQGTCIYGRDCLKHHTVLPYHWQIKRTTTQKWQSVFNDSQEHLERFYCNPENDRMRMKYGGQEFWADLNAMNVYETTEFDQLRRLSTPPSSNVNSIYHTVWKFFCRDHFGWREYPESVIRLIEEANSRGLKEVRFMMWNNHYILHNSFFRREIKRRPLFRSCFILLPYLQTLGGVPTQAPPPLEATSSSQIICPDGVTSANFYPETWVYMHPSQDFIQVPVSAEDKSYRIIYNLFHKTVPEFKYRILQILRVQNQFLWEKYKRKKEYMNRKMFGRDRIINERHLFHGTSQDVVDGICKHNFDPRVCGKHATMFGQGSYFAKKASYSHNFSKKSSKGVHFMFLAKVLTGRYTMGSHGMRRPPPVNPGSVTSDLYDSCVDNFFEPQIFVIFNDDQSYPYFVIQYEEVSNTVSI
Put plainly: Inhibitory activity of compounds on PARP7 enzyme (PARP7 Chemiluminescent Assay Kit). In kind it is biochemical. The method, then: Experimental materials: PARP7 Chemiluminescent Assay Kit, BPS Bioscience; DMSO, China National Pharmaceutical Group, Nivo, PerkinElmer.
(1) Preparation of Solutions and Buffers:
Preparation of 10×PBS: 720 mg of KH2PO4, 45 g of NaCl and 5.311 g of Na2HPO4·12H2O were weighed respectively and dissolved in 500 mL of deionized water, a system pH value was adjusted to 7.4, sterilization was performed at 121° C. for 30 min, and the system after cooling was placed at 4° C. for later use.
Preparation of 1×PBS: 10×PBS was diluted 10 times with deionized water, that is, 9 parts of deionized water was added to 1 part of 10×PBS for dilution.
Preparation of wash buffer: 1×PBS contained 0.05% Tween-20.
Preparation of 1×PARP buffer (prepared freshly before use): 10×PARP buffer was diluted 10 times with deionized water and placed on ice for later use.
(2) Preparation of Compound Working Solution Concentration:
According to test requirements, a compound to be tested is diluted with 100% DMSO to a desired concentration, and then diluted 10 times with 1×PARP buffer to prepare a 10× compound working solution.
a. 5× histone mixture was thawed on ice one day prior to the experiment;
b. preparation of 1× histone mixture: 1× histone mixture was prepared through the 5× histone mixture by using 1×PBS; and 25 μL of 1× histone mixture was taken from each well and transferred into a test well plate and incubated overnight at 4° C.;
c. 100 μL of Blocking buffer was taken from each well and added to the test well plate and incubated for 90 min at 25° C.;
d. after the incubation was completed, the liquid in the test well plate was spin-dried, and the test well plate was washed repeatedly for 3 times;
e. 2.5 μL of the compound working solution was taken from each well and added to the test well plate according to an experimental layout diagram; and 1×PARP buffer with a corresponding volume of 10% DMSO was added to positive control wells (Positive Control), and 1×PARP buffer of a corresponding volume was added to blank control wells (Blank);
f. after the enzyme was completely dissolved, an enzyme stock solution was diluted with 1×PARP buffer to 6 ng/μL;
g. 10 μL of enzyme solution was taken from each well and added to the test well plate, the blank control wells were added with the corresponding volume of 1×PARP buffer, and in which case, the enzyme amount was 60 ng per well. Note: this step needs to be performed on ice;
h. 12.5 μL of master mixture was added to each well of the test well plate (12.5 μL master mixture included 1.25 μL of 10×PARP buffer, 1.25 μL of Opti-PARP 10× Assay mixture and 10 μL of water); the test well plate was sealed and incubated at 25° C. for 60 min;
i. after the incubation was completed, the liquid in the test well plate was spin-dried, and the test well plate was washed repeatedly for 3 times;
j. Streptavidin-HRP in a kit was diluted 50 times with a Blocking buffer, 25 μL was taken from each well and added to the test well plate, and incubated at 25° C. for 30 min;
k. after the incubation was completed, the liquid in the test well plate was spin-dried, and the test well plate was washed repeatedly for 3 times;
l. ELISA ECL Substrate A and ELISA ECL Substrate B in the kit was mixed to obtain a mixed solution according to a ratio of 1:1, 50 μL of the mixed solution was added to each well of the test well plate, Nivo was used to perform Luminescence detection immediately, and a luminous value (RLU) was read; and
m. calculation of an enzyme rate: Enzyme Activity=(RLU(Sample)−RLU(Blank))/(RLU(Pos.Ctrl)−RLU(Blank))×100%; and enzyme inhibition rate=1−% Enzyme Activity, and specific results were shown in Table 1 below.

Where [1] appears, read: chemiluminescence, symbols defined as IC50 classes, read-out: 100 nM Inhibition Rate.

The structures appear in SMILES notation. Where two headings read alike, the source gives them in different places. Where only a bound is given, the exact number is not on record here.

Consider `C[C@@H](CN1CC(C(=O)N2CCN(c3ncc(-c4ccc(C(F)(F)F)cc4)cn3)CC2)C1)Nc1cn[nH]c(=O)c1C(F)(F)F` [I-A-2, (S)-4-(trifluoromethyl)-5-((1-(3-(4-(5-(4-(trifluoromethyl)phenyl)pyrimidin-2-yl)piperazine-1-carbonyl)azetidin-1-yl)propan-2-yl)amino)pyridazin-3(2H)-one], for which the IC50 under setting [1] lay in the range of 100 to 500 nM. Same read-out and setting: for `C[C@@H](CN1CC(C(=O)N2CCN(c3ncc(C#N)cn3)CC2)C1)Nc1cn[nH]c(=O)c1C(F)(F)F` [I-A-3, (S)-2-(4-(1-(2-((6-oxo-5-(trifluoromethyl)-1,6-dihydropyridazin-4-yl)amino)propyl)azetidine-3-carbonyl)piperazin-1-yl)pyrimidine-5-carbonitrile] the value was less than 100 nM; for `C[C@@H](CN1CC(C(=O)N2CCN(c3ncc(S(C)(=O)=O)cn3)CC2)C1)Nc1cn[nH]c(=O)c1C(F)(F)F` [I-A-4, (S)-5-((1-(3-(4-(5-(methylsulfonyl)pyrimidin-2-yl)piperazine-1-carbonyl)azetidin-1-yl)propan-2-yl)amino)-4-(trifluoromethyl)pyridazin-3(2H)-one], less than 100 nM. For `C[C@@H](CN1CC(C(=O)N2CCN(c3ncc(Cl)cn3)CC2)C1)Nc1cn[nH]c(=O)c1C(F)(F)F` [I-A-5, (S)-5-((1-(3-(4-(5-chloropyrimidin-2-yl)piperazine-1-carbonyl)azetidin-1-yl)propan-2-yl)amino)-4-(trifluoromethyl)pyridazin-3(2H)-one], the IC50 under setting [1] is less than 100 nM. As to `Cc1cnc(N2CCN(C(=O)C3CN(C[C@H](C)Nc4cn[nH]c(=O)c4C(F)(F)F)C3)CC2)nc1` [I-A-6, (S)-5-((1-(3-(4-(5-methylpyrimidin-2-yl)piperazine-1-carbonyl)azetidin-1-yl)propan-2-yl)amino)-4-(trifluoromethyl)pyridazin-3(2H)-one], under setting [1], the IC50 is less than 100 nM. Take `C[C@@H](CN1CC(C(=O)N2CCN(c3ncc(Br)cn3)CC2)C1)Nc1cn[nH]c(=O)c1C(F)(F)F` [I-A-7, (S)-5-((1-(3-(4-(5-bromopyrimidin-2-yl)piperazine-1-carbonyl)azetidin-1-yl)propan-2-yl)amino)-4-(trifluoromethyl)pyridazin-3(2H)-one]: under setting [1], the IC50 is less than 100 nM.

As for `C[C@@H](CN1CC(C(=O)N2CCN(c3ncc(F)cn3)CC2)C1)Nc1cn[nH]c(=O)c1C(F)(F)F` [I-A-8, (S)-5-((1-(3-(4-(5-fluoropyrimidin-2-yl)piperazine-1-carbonyl)azetidin-1-yl)propan-2-yl)amino)-4-(trifluoromethyl)pyridazin-3(2H)-one], the IC50 under setting [1] was 100 to 500 nM.

Turning to `COc1cnc(N2CCN(C(=O)C3CN(C[C@H](C)Nc4cn[nH]c(=O)c4C(F)(F)F)C3)CC2)nc1` [I-A-9, (S)-5-((1-(3-(4-(5-methoxypyrimidin-2-yl)piperazine-1-carbonyl)azetidin-1-yl)propan-2-yl)amino)-4-(trifluoromethyl)pyridazin-3(2H)-one], under setting [1], the IC50 was less than 100 nM. The same measure, in the same setting: for `C[C@@H](CN1CC(C(=O)N2CCN(c3ccc(C(F)(F)F)cn3)CC2)C1)Nc1cn[nH]c(=O)c1C(F)(F)F` [I-A-10, (S)-4-(trifluoromethyl)-5-((1-(3-(4-(5-(trifluoromethyl)pyridin-2-yl)piperazine-1-carbonyl)azetidin-1-yl)propan-2-yl)amino)pyridazin-3(2H)-one] the value was less than 100 nM; for `C[C@@H](CN1CC(C(=O)N2CCN(c3ccc(C(F)(F)F)cc3)CC2)C1)Nc1cn[nH]c(=O)c1C(F)(F)F` [I-A-11], 100 to 500 nM; for `C[C@@H](CN1CC(C(=O)N2CCN(c3cccc4c3oc3ccccc34)CC2)C1)Nc1cn[nH]c(=O)c1C(F)(F)F` [I-A-12], 100 to 500 nM. On to `C[C@@H](CN1CC(C(=O)N2CCN(c3nccc(C(F)(F)F)n3)CC2)C1)Nc1cn[nH]c(=O)c1C(F)(F)F` [I-A-13, (S)-4-(trifluoromethyl)-5-((1-(3-(4-(4-(trifluoromethyl)pyrimidin-2-yl)piperazine-1-carbonyl)azetidin-1-yl)propan-2-yl)amino)pyridazin-3(2H)-one], for which the IC50 reads like this: under setting [1], less than 100 nM; (summary of Table 1, read-out: enzyme inhibition IC50 values) less than 100 nM.
